Data as given in US20250135050A1, “IODIDE NANOPARTICLES AND COMPOSITIONS OF METHODS OF USE THEREOF” (University of Georgia Research Foundation, Inc., priority 2021, published 2025).

Assays:
NIS = NIS expression by flow cytometry; assay type: cell-based; conditions: MCF-7 cells, tRA 1 μM
Experimental: In addition to MCF-7, MDA-MB-231 cells, which have a low expression of NIS, were analyzed as a comparison.

MCF-7 cells = test: MTT cytotoxicity assay; assay type: cell-based; conditions: FIG. 3A
Experimental: Cells were seeded in 96 well-plates (Corning, 3599) with 10,000 cells/well. […] The cellular media was replaced with media of the appropriate concentration of materials and incubated for a further 24 hours. MTT reagent was then added in the culture medium, followed by incubation at 37° C. for 3 h and the resulting purple crystal solubilized in DMSO. The absorbance was measured on a microplate reader (SynergyMx) at 590 nm, with the measurements performed in at least triplicate.

Structure (SMILES) | NIS expression (NIS) | toxicity of iodide (MCF-7 cells)
CC1=C(/C=C/C(C)=C/C=C/C(C)=C/C(=O)O)C(C)(C)CCC1 [tRA, Trans retinoic acid] | induced NIS expression | 
I [iodide] |  | little toxicity
